According to PMC3445516 (PLoS ONE, 2012):
Read-outs that look alike come from different tables or passages of the source. Blank lines part the entries; values can stand above or below the compound they belong to.

Assays:
Assay in all cases: Ambit kinase profiling, competition binding
[1] = biological target: T1, EGFR(L861Q) (Homo sapiens, UniProt P00533, L861Q); conditions: for % Competition: 10 µM
T1 construct: purchased Ambit Biosciences (KINOMEscan)
Description: (§1) Also included in the kinase profile are four isoforms of PKC (δ, ε, η, θ) and eight isoforms of CAMKs (CAMKIα, δ, γ; CAMKIIα, β, δ, γ; CAMK4).
(§2) The global kinase profiling experiment was performed by Ambit Biosciences.

[2] = biological target: T2, CSNK1A1L (Homo sapiens, UniProt Q8N752)
T2 construct: purchased Ambit Biosciences (KINOMEscan)
T2 sequence (Q8N752 1-337): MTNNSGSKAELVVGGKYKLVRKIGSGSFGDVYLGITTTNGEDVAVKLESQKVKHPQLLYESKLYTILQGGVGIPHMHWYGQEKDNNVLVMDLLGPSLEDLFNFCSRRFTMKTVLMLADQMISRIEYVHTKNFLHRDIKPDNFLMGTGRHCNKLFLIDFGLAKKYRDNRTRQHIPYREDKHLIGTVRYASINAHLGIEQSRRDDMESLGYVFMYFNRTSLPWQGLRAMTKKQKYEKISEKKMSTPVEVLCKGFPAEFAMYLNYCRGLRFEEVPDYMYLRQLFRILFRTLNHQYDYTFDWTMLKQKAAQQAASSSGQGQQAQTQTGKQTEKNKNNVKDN
Description: as §1, §2

[3] = biological target: T3, p38-beta (Homo sapiens, UniProt Q15759)
T3 construct: purchased Ambit Biosciences (KINOMEscan)
Description: as §1, §2

[4] = biological target: T4, EPHA3 (Homo sapiens, UniProt P29320)
T4 construct: purchased Ambit Biosciences (KINOMEscan)
T4 sequence (P29320 21-983): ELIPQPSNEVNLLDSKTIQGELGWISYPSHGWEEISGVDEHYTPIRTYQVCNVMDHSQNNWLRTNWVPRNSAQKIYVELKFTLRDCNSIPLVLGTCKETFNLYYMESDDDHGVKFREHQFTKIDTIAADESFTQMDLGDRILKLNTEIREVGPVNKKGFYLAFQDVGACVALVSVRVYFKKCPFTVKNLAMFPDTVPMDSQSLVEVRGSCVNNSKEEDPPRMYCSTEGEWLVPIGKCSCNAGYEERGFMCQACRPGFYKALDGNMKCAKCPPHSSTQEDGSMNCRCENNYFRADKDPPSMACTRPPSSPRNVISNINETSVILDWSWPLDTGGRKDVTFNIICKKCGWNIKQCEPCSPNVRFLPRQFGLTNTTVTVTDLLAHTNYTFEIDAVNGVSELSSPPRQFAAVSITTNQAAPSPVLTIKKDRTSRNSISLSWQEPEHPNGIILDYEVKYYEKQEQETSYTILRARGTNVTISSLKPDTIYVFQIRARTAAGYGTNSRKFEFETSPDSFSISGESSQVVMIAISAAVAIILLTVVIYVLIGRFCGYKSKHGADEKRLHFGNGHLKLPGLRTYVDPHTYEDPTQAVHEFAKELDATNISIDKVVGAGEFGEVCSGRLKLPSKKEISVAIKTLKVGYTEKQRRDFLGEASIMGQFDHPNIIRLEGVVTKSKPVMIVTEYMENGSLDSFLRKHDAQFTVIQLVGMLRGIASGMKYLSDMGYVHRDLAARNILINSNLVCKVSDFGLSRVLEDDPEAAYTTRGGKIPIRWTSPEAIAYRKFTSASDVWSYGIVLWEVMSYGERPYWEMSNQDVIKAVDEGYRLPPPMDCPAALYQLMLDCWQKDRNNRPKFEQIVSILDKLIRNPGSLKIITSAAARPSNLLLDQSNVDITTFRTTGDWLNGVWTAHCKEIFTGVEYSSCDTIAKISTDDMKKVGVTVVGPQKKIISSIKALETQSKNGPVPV
Description: as §1, §2

[5] = biological target: T5, CAMKIIβ (Homo sapiens, UniProt Q13554); conditions: for competition: CAMKIIβ, 10 µM
T5 construct: purchased Ambit Biosciences (KINOMEscan)
Description: as §1, §2

[6] = biological target: T6, TGFBR2 (Homo sapiens, UniProt P37173)
T6 construct: purchased Ambit Biosciences (KINOMEscan)
Description: as §1, §2

[7] = biological target: T7, CLK2 (Homo sapiens, UniProt P49760)
T7 construct: purchased Ambit Biosciences (KINOMEscan)
Description: as §1, §2

[8] = biological target: T8, PKC ε (Homo sapiens, UniProt Q02156); conditions: for competition: PKC ε, 10 µM
T8 construct: purchased Ambit Biosciences (KINOMEscan)
T8 sequence (Q02156 1-737): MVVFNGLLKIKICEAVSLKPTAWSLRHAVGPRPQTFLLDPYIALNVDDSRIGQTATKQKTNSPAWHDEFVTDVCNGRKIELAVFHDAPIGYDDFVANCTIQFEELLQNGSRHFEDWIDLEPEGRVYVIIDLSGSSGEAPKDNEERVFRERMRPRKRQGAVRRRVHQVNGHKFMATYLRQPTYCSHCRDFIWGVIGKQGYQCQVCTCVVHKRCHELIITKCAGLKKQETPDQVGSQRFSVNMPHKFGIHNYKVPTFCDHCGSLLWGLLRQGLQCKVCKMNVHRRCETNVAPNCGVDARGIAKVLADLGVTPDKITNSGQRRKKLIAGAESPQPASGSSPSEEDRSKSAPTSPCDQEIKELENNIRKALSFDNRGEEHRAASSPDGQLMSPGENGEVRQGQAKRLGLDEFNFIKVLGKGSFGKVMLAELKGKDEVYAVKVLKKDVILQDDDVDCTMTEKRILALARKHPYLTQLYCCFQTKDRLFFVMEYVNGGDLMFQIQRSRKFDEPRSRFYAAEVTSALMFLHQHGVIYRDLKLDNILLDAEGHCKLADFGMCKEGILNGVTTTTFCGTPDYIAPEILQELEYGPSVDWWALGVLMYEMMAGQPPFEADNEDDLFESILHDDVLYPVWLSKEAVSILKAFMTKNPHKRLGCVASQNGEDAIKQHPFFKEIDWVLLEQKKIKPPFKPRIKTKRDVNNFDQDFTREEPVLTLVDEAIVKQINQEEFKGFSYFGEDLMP
Description: as §1, §2

T7 sequence (P49760 whole entry): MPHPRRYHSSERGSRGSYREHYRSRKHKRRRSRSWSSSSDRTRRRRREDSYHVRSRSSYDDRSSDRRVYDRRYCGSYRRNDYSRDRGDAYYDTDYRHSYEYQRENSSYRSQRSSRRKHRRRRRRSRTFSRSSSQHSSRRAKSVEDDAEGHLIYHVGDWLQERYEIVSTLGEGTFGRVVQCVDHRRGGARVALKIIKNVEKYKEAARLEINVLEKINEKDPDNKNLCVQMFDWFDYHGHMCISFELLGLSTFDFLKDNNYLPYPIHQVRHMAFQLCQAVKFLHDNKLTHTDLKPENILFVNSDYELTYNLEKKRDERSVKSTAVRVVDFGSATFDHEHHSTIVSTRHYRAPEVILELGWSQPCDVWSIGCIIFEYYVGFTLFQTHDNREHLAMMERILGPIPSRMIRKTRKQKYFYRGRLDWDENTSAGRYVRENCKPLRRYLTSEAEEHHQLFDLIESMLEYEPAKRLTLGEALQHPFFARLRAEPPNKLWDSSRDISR
T3 sequence (Q15759 whole entry): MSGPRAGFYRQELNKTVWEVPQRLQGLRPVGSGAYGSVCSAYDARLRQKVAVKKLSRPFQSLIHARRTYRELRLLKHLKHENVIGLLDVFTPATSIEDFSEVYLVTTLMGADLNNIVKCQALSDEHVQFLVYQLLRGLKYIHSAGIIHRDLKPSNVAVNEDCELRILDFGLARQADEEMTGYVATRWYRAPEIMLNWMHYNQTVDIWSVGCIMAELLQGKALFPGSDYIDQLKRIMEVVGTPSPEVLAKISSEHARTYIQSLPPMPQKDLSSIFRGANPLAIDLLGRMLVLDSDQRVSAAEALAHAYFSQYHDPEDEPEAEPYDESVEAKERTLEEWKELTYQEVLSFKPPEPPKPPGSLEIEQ
T6 sequence (P37173 23-567): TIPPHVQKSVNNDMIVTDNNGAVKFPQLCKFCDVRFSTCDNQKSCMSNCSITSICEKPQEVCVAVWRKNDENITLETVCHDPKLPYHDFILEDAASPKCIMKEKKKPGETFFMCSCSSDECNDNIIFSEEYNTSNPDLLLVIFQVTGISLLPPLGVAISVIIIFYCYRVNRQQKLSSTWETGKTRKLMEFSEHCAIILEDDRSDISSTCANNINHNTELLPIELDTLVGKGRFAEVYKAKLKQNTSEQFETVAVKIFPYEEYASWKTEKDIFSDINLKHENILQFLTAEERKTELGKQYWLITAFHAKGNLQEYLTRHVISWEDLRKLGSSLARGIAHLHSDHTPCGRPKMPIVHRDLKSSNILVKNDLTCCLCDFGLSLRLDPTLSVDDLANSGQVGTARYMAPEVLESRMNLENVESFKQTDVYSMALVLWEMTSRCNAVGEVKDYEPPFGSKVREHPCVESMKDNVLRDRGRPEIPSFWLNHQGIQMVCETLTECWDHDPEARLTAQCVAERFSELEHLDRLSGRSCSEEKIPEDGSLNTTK
T5 sequence (Q13554 whole entry): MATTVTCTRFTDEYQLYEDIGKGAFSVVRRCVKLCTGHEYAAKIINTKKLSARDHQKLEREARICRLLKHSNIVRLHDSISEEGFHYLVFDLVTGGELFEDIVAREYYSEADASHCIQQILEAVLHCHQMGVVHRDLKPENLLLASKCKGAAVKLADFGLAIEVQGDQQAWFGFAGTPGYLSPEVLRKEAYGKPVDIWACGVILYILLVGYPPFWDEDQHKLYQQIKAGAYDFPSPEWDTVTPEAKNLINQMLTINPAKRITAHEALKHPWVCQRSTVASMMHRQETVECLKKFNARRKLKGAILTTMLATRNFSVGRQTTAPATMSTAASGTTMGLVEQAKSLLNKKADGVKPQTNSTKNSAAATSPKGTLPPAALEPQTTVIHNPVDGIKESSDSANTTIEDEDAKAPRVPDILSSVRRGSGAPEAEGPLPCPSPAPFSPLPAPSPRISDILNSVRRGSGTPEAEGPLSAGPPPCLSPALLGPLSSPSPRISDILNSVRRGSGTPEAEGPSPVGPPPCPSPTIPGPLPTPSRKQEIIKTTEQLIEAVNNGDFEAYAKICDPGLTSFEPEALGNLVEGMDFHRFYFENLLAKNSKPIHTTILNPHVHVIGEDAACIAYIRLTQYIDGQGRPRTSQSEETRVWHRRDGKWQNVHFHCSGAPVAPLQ

% Competition [1]: 97%
inhibition at 10 µM ([2]; CSNK1A1L, 10 µM, read-out: % Competition): 95%
inhibition at 10 µM ([3]; 10 µM, read-out: % Competition): 100%
inhibition at 10 µM ([4]; EPHA3, 10 µM, read-out: % Competition): 85%
competition [5]: < 50%
inhibition at 10 µM ([6]; TGFBR2, 10 µM, read-out: % Competition): 98%
inhibition at 10 µM ([7]; CLK2, 10 µM, read-out: % Competition): 97%
competition [8]: < 50%
Compound: Fc1ccc(-c2c(-c3ccncc3)[nH]c3nccnc23)cc1 [Compound 122]

Compound: CC(O)CNc1cc(-c2[nH]c3cccnc3c2-c2ccc(F)cc2)ccn1 (stereo not drawn) [Compound 140]
% Competition [1]: 87%
inhibition at 10 µM ([2]; read-out: % Competition): 86%
% Competition ([3]; 10 µM): 100%
inhibition at 10 µM ([4]; read-out: % Competition): < 50%
competition [5]: < 50%
inhibition at 10 µM ([6]; read-out: % Competition): < 50%
inhibition at 10 µM ([7]; read-out: % Competition): < 50%
competition [8]: < 50%

Percent Competition ([1]; compound concentration 10 uM): 97%
inhibition at 10 µM ([2]; CSNK1A1L, compound concentration 10 uM, read-out: Percent Competition): 95%
inhibition at 10 µM ([3]; compound concentration 10 uM, read-out: Percent Competition): 100%
inhibition at 10 µM ([4]; EPHA3, compound concentration 10 uM, read-out: Percent Competition): 85%
inhibition at 10 µM ([5]; CAMK2B, compound concentration 10 uM, read-out: Percent Competition): < 50%
inhibition at 10 µM ([6]; TGFBR2, compound concentration 10 uM, read-out: Percent Competition): 98%
inhibition at 10 µM ([7]; CLK2, compound concentration 10 uM, read-out: Percent Competition): 97%
inhibition at 10 µM ([8]; PRKCE, compound concentration 10 uM, read-out: Percent Competition): < 50%
Compound: Fc1ccc(-c2c(-c3ccncc3)[nH]c3nccnc23)cc1 [RO1155697-000-005]
